Results on one substance are retold here after patent US20200384072A1, “THERAPY OF IONIZING RADIATION-INDUCED DISORDERS” (SCK-CEN, priority 2019, published 2020).

The target of assay [1] is T1, Cx43 hemichannels (Homo sapiens, UniProt P17302).
T1 construct: endogenous in cells; host or cells: TICAE and TIME cells (human endothelial cell lines)
Nature of the assay: Propidium iodide dye uptake assay after irradiation, TICAE cells. Format: cell-based. From the text:
Hemichannel opening was also investigated by dye uptake studies making use of the hemichannel permeable fluorescent tracer propidium iodide (PI; MW 668.4 Da). In addition, dextran fluorescein 10 kDa dye was used to assess membrane integrity and occurrence of cell death. PI stains cells with open hemichannels, late apoptotic and necrotic cells, while dextran fluorescein only stains late apoptotic and necrotic cells. Therefore, PI-positive and dextran fluorescein-negative cells are a measure for hemichannel opening while dextran fluorescein-positive cells are a measure for dead cells.
TICAE and TIME cells were seeded in a 24-well plate at a density of 1.25×10^5 and 1.5×10^5 cells/well, respectively, in six biological replicates. Three days later, cells reached 100% confluence. Thirty minutes before irradiation, cells were refreshed with 1 ml medium alone or with medium supplemented with 100 μM TAT-Gap19 (Genosphere Biotechnologies, Paris, France). For fractionated irradiation, cells were refreshed with 1.5 ml medium/well. At different time points after irradiation (1, 6 and 72 h), cells were washed twice with HMS supplemented with 25 mM HEPES (Sigma-Aldrich Co. LCC, Diegem, Belgium) (HBSS-HEPES). Afterwards, the cells were incubated with 1 mM PI and 200 μM dextran fluorescein (10 kDa) (Life Technologies, Merelbeke, Belgium), dissolved in HBSS-HEPES for 5 minutes followed by 5 times washing with MSS-HEPES. Finally, the fluorescence was measured using an IncuCyte ZOOM® system (Essen BioScience, Ann Arbor, Mich., USA) by using different channels (TRITC, FITC and phase contrast) and a 10× objective Fluorescence signal was normalized to cell number.

Assay [2] relates to TICAE cells. In words: Cell death, Annexin V and Caspase 3/7 live cell imaging, TICAE cells. Format: cell-based, human. The protocol:
TICAE and TIME cells were seeded in 96 well plates at a density of 10000 cells/well in 8 biological replicates. After three days, cells were at 100% confluence. At 30 minutes before X-ray exposure, cells were refreshed with 200 μl medium supplemented with Caspase 3/7 reagent (1:1000 dilution) and Annexin V reagent (1:200 dilution) (Essen Bioscience, United Kingdom) with or without 100 μM TAT-Gap19 (Genosphere Biotechnologies, Paris, France). Fluorescence signals were measured from 4 h until 100 h after irradiation by imaging every 2 hours using the IncuCyte ZOOM® system (Essen BioScience, Ann Arbor, Mich., USA). Different channels (TRITC, FITC and phase contrast) and a 10× objective were used. Spectral unmixing set as 8% of red removed from green was applied. The IncuCyte software's processing definition was set to recognize red (Annexin V) and green (Caspase 3/7) stained cells, making use of the Top-Hat background subtraction method. Fluorescence signal was normalized to cell count.

The subject of assay [3] is TIME cells. In words: Dextran fluorescein (10 kDa) dye uptake cell death assay, TIME cells. Format: cell-based, human. The protocol: Dextran fluorescein, staining late apoptotic and necrotic cells, was used to validate apoptosis in TIME cells after irradiation. Cells were seeded in a 24-well plate at a density of 1.5×10^5 cells/well in 6 biological replicates. Three days later, cells reached 100% confluence. Before X-ray exposure with 30 minutes, cells were refreshed with medium with or without 100 μM TAT-Gap19 (Genosphere Biotechnologies, Paris, France). At 6 h and 72 h after irradiation, cells were washed twice with HMS supplemented with 25 mM HEPES (Sigma-Aldrich Co. LCC, Diegem, Belgium) (HBSS-HEPES). Afterwards, the cells were incubated with 200 μM dextran fluorescein (10 kDa) (Life Technologies, Merelbeke, Belgium), dissolved in HBSS-HEPES. After six minutes, the staining was removed by washing six times with HBSS-HEPES. Finally, the fluorescence was measured using the IncuCyte ZOOM® system (Essen BioScience, Ann Arbor, Mich., USA) by using FITC channel and phase contrast to count the cells using a ×10 objective. The fluorescence signal was normalized to cell count.

The test system of assay [4] is TICAE cells. Nature of the assay: Senescence-associated β-galactosidase CPRG assay, TICAE cells. The format is cell-based, human. How it is done:
(§1) TICAE and TIME cells were seeded in 96 well plates at a density of 10000 cells/well in 16 replicates. Three days after, cells were at 100% confluent. At 30 minutes before X-ray exposure, the cells were refreshed with 150 μl medium alone or with medium supplemented with 100 μM TAT-Gap19 (Genosphere Biotechnologies, Paris, France). For 7 d and 9 d post irradiation experiments, the medium was refreshed once, while for 14 d post irradiation experiment the medium was refreshed twice with 200 μl medium alone or with medium supplemented with 100 μM TAT-Gap19. At 7, 9 and 14 days post irradiation, cell number was determined using an Incucyte® ZOOM life cell analysis system and related software (Essen Bioscience, Hertfordshire, United Kingdom). Afterwards, the senescence associated β-galactosidase activity in the cells was determined using the chlorophenol red β-D-galactopyranoside (CPRG) assay as described previously. The cells were washed with PBS and lysed using M-PER™ buffer (Thermo Fisher Scientific, Asse, Belgium). Subsequently, 1×CPRG substrate (2 mM Chloropenol Red β-D-galactopyranoside in CPRG assay buffer containing 50 mM KPO4, 1 mM MgCl2, pH 6) (Sigma-Aldrich, Overijse, Belgium) was added to each well and the plates incubated for 18 h at 37° C. without CO2. A CLARIOstar® microplate reader (BMG Labtech, Temse, Belgium) was used to measure the absorbance at 570 nm.

For assay [5], the system named is TIME cells. Nature of the assay: Senescence-associated β-galactosidase CPRG assay, TIME cells. Format: cell-based, human. How it is done:
as §1

Assay [6] has as its target hemichannels composed of Cx43 (Homo sapiens, UniProt P17302). The settings on record: cited from earlier work.
Assay [7] deals with mice liver. The settings on record: mice treated with thioacetamide to induce liver fibrosis; cited from earlier work.
Assay [8] relates to non-alcoholic fatty liver mouse model. As to conditions: cited from earlier work.
The mark [9] stands for this setting: 100 μM TAT-Gap19, 0 Gy and 0.1 Gy, from 4-16 h p.i. until the end.
Where [10] appears, read: 100 μM TAT-Gap19, 5 Gy, from 12 h p.i. until end of recording (100 h).
Where [11] appears, read: 100 μM TAT-Gap19, 0.1 Gy and 5 Gy, 14 d p.i.

T1 sequence (P17302 whole entry): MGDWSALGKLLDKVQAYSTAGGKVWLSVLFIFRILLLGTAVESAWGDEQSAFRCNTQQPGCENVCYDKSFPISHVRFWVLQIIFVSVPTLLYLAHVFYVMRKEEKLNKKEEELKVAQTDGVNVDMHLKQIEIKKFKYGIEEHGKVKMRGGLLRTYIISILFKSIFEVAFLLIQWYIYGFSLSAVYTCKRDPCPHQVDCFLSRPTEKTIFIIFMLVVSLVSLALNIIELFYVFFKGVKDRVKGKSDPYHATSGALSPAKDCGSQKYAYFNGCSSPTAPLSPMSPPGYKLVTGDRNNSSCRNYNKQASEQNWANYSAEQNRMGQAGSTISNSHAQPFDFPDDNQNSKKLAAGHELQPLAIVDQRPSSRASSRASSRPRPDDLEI
Chain of hemichannels composed of Cx43 (P17302 whole entry): as above

Consider “TAT-Gap19: connexin mimetic peptide, amino-acids 128-136 of the CL of Cx43 (SEQ ID NO: 2), Gap19 linked to TAT sequence; Cx43 hemichannel inhibitor (YGRKKRRQRRRKQIEIKKFK)”, for which the “radiation-induced PI dye uptake” value was “had no effect” in assay [1] (100 μM TAT-Gap19, fractionated 5 Gy, 72 h); “Significant inhibition” in assay [1] (100 μM TAT-Gap19, single 5 Gy, 1 h p.i.); “most clear and significant at the 72 h p.i. time point” in assay [1] (100 μM TAT-Gap19, single irradiation, 72 h p.i.). In addition, the “Annexin V” value in assay [2] (setting [9]) and in assay [2] (setting [10]) was “significantly reduced” each time. For the same substance, the “Caspase 3/7 activity” value in assay [2] (setting [9]) and in assay [2] (setting [10]) was “significantly reduced” in each case. For the same substance, the “dextran fluorescein staining (radiation-induced increase)” value in assay [3] (100 μM TAT-Gap19, 5 Gy at 6 h p.i., 5 and 0.1 Gy at 72 h p.i., including control response) is reported as “inhibited”. Further, the dextran fluorescein staining entry in assay [3] (100 μM TAT-Gap19, control and 0.1 Gy, 6 h p.i.) is “small increase”. Further, the “SA β-gal activity” value is given as “significantly reduced SA β-gal activity” in assay [4] (100 μM TAT-Gap19, 0 Gy and 5 Gy, 9 d p.i.); “significantly reduced SA β-gal activity” in assay [4] (100 μM TAT-Gap19, control, 0.1 Gy and 5 Gy, 7 d p.i.); “significantly reduced SA β-gal activity in all conditions” in assay [5] (100 μM TAT-Gap19, 0 Gy, 0.1 Gy and 5 Gy, 7 d p.i.); “significantly reduced SA β-gal activity” in assay [5] (100 μM TAT-Gap19, 5 Gy, 9 d p.i.); “unexpectedly increased SA β-gal activity” in assay [5] (100 μM TAT-Gap19, control condition, 9 d p.i.). In addition, the “SA β-gal activity (radiation responses)” value in assay [4] (setting [11]) and in assay [5] (setting [11]) was “significantly inhibited these responses” throughout. Besides, in assay [6], the “half-time of Cx43 hemichannel block” value was 100 s. Besides, in assay [7], the “SOD activity in liver” value is reported as “increased SOD activity”. In assay [8], the IL-1B entry is recorded as “significantly decrease”. Further, the TNF-α entry in assay [8] is recorded as “significantly decrease”.
